According to the supplement of paper PMC10627819:

Key:
[1] = test system: S. aureus Newman; assay: fitness (endpoint OD595 vs no drug) (fraction); higher = more growth
Procedure, shortened: (§1)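 Growth medium was TSB, LB Lennox or CY, and plates were kept at 37 °C. Inoculation was at OD595 0.01 in 384-well plates, at 30 µl per well or 55 µl for S. pneumoniae. OD595 was monitored every 30 min for 14 h and background-subtracted using the first reading. Fitness is the optical density on entering stationary phase divided by the robust mean of no-drug controls, with values capped at 1.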

[2] = test system: S. aureus DSM 20231; assay: as above
Procedure, shortened: as §1

[3] = test system: S. aureus Newman; assay: Bliss interaction score (quartile over a dose matrix) (fitness difference); higher = more antagonism (negative = synergy)
Procedure, shortened: (§2)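 Quartiles summarise the Bliss score over technical, biological and donor/recipient replicates, where the score is observed minus expected fitness under a product model. Expected fitness uses single-drug values inferred from combination data. Fitness is OD595 at entry into stationary phase over the plate's robust no-drug mean, capped at 1.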

[4] = test system: B. subtilis 168; assay: as above
Procedure, shortened: as §2

[5] = test system: S. pneumoniae D39V; assay: as above
Procedure, shortened: as §2

[6] = test system: S. aureus DSM 20231; assay: as above
Procedure, shortened: as §2

[7] = first compound 0.75 µg/mL, partner 0.625 µg/mL
[8] = first compound 0.75 µg/mL, partner 1.25 µg/mL
[9] = first compound 0.75 µg/mL, partner 2.5 µg/mL
[10] = first compound 1.5 µg/mL, partner 0.625 µg/mL
[11] = first compound 1.5 µg/mL, partner 1.25 µg/mL
[12] = first compound 1.5 µg/mL, partner 2.5 µg/mL
[13] = first compound 3 µg/mL, partner 0.625 µg/mL
[14] = first compound 3 µg/mL, partner 1.25 µg/mL
[15] = first compound 0.75 µg/mL, partner 12.5 µg/mL
[16] = first compound 0.75 µg/mL, partner 25 µg/mL
[17] = first compound 0.75 µg/mL, partner 50 µg/mL
[18] = first compound 1.5 µg/mL, partner 12.5 µg/mL
[19] = first compound 1.5 µg/mL, partner 50 µg/mL
[20] = first compound 3 µg/mL, partner 12.5 µg/mL
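Wherever Bliss interaction score (quartile over a dose matrix) is given: first quartile when negative (synergy) and third quartile when positive (antagonism).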

O=C(N[C@H](CO)[C@H](O)c1ccc([N+](=O)[O-])cc1)C(Cl)Cl [Chloramphenicol] + COc1cccc2c1C(=O)c1c(O)c3c(c(O)c1C2=O)C[C@@](O)(C(=O)CO)C[C@@H]3O[C@H]1C[C@H](N)[C@H](O)[C@H](C)O1 [Doxorubicin]
fitness [1, 7]: 0.676 | fitness [1, 8]: 0.72 | fitness [1, 9]: 0.685 | fitness [1, 10]: 0.564 | fitness [1, 11]: 0.562 | fitness [1, 12]: 0.579 | fitness [1, 13]: 0.326 | fitness [1, 14]: 0.291 | fitness [2, 7]: 0.646 | fitness [2, 8]: 0.698 | fitness [2, 9]: 0.663 | fitness [2, 10]: 0.572 | fitness [2, 11]: 0.569 | fitness [2, 12]: 0.525 | fitness [2, 13]: 0.118 | fitness [2, 14]: 0.121 | Bliss interaction score [3]: 0.132 | Bliss interaction score [4]: -0.0604 | Bliss interaction score [5]: -0.127

O=C(N[C@H](CO)[C@H](O)c1ccc([N+](=O)[O-])cc1)C(Cl)Cl [Chloramphenicol] + C[C@@H](O)[C@H]1C(=O)N2C(C(=O)O)=C(SCCNC=N)C[C@H]12 [Imipenem]
Bliss interaction score [3]: -0.0316 | Bliss interaction score [6]: 0.0442 | Bliss interaction score [5]: -0.0662

O=C(N[C@H](CO)[C@H](O)c1ccc([N+](=O)[O-])cc1)C(Cl)Cl [Chloramphenicol] + C[C@H]1COc2c(N3CCN(C)CC3)c(F)cc3c(=O)c(C(=O)O)cn1c23 [Levofloxacin]
Bliss interaction score [6]: 0.0741 | Bliss interaction score [4]: 0.0387 | Bliss interaction score [5]: 0.0655

O=C(N[C@H](CO)[C@H](O)c1ccc([N+](=O)[O-])cc1)C(Cl)Cl [Chloramphenicol] + Cc1ncc([N+](=O)[O-])n1CCO [Metronidazole]
fitness [1, 7]: 0.796 | fitness ([1]; first compound 0.75 µg/mL, partner 0.781 µg/mL): 0.789 | fitness [1, 8]: 0.819 | fitness ([1]; first compound 0.75 µg/mL, partner 1.562 µg/mL): 0.768 | fitness [1, 9]: 0.853 | fitness ([1]; first compound 0.75 µg/mL, partner 3.124 µg/mL): 0.752 | fitness [1, 10]: 0.555 | fitness ([1]; first compound 1.5 µg/mL, partner 0.781 µg/mL): 0.539 | fitness [1, 11]: 0.573 | fitness ([1]; first compound 1.5 µg/mL, partner 1.562 µg/mL): 0.527 | fitness [1, 12]: 0.564 | fitness ([1]; first compound 1.5 µg/mL, partner 3.124 µg/mL): 0.521 | fitness [1, 13]: 0.159 | fitness [1, 14]: 0.167 | fitness ([1]; first compound 3 µg/mL, partner 1.562 µg/mL): 0.172 | fitness ([1]; first compound 3 µg/mL, partner 3.124 µg/mL): 0.231 | fitness [2, 7]: 0.775 | fitness [2, 8]: 0.736 | fitness [2, 9]: 0.755 | Bliss interaction score [3]: -0.07 | Bliss interaction score [4]: 0.0423 | Bliss interaction score [5]: 0.0867

O=C(N[C@H](CO)[C@H](O)c1ccc([N+](=O)[O-])cc1)C(Cl)Cl [Chloramphenicol] + O=C1CN(/N=C/c2ccc([N+](=O)[O-])o2)C(=O)N1 [Nitrofurantoin]
Bliss interaction score [3]: -0.0842 | Bliss interaction score [6]: -0.0404 | Bliss interaction score [5]: -0.157

O=C(N[C@H](CO)[C@H](O)c1ccc([N+](=O)[O-])cc1)C(Cl)Cl [Chloramphenicol] + O=C(O[C@@H]1Cc2c(O)cc(O)cc2O[C@@H]1c1cc(O)c(O)c(O)c1)c1cc(O)c(O)c(O)c1 [EGCG]
fitness [1, 15]: 0.649 | fitness [1, 16]: 0.699 | fitness [1, 17]: 0.699 | fitness [1, 18]: 0.602 | fitness [1, 19]: 0.509 | fitness [1, 20]: 0.189 | fitness [2, 15]: 0.653 | fitness [2, 16]: 0.646 | fitness [2, 17]: 0.669 | fitness [2, 18]: 0.56 | fitness ([2]; first compound 1.5 µg/mL, partner 25 µg/mL): 0.572 | fitness [2, 19]: 0.494 | fitness [2, 20]: 0.15 | fitness ([2]; first compound 3 µg/mL, partner 25 µg/mL): 0.136 | fitness ([2]; first compound 3 µg/mL, partner 50 µg/mL): 0.0905 | Bliss interaction score [6]: 0.0831 | Bliss interaction score [4]: 0.103 | Bliss interaction score [5]: -0.0762

CC(=O)O[C@H]1C[C@@]2(C)[C@@H](C[C@@H](O)[C@H]3[C@@]4(C)CC[C@@H](O)[C@@H](C)[C@@H]4CC[C@@]32C)/C1=C(\CCC=C(C)C)C(=O)O [Fusidic acid] + CC(C)(O)c1ccccc1CC[C@@H](SCC1(CC(=O)O)CC1)c1cccc(/C=C/c2ccc3ccc(Cl)cc3n2)c1 [Montelukast]
Bliss interaction score [6]: -0.241

CC(=O)O[C@H]1C[C@@]2(C)[C@@H](C[C@@H](O)[C@H]3[C@@]4(C)CC[C@@H](O)[C@@H](C)[C@@H]4CC[C@@]32C)/C1=C(\CCC=C(C)C)C(=O)O [Fusidic acid] + C[C@H]1C[C@@H]2[C@H]([C@@H](O)C[C@@]3(C)[C@H]2CC[C@]3(O)C(=O)CO)[C@@]2(C)C=CC(=O)C=C12 [Methylprednisolone]
Bliss interaction score [6]: -0.127

CC(=O)O[C@H]1C[C@@]2(C)[C@@H](C[C@@H](O)[C@H]3[C@@]4(C)CC[C@@H](O)[C@@H](C)[C@@H]4CC[C@@]32C)/C1=C(\CCC=C(C)C)C(=O)O [Fusidic acid] + Cc1c(Cl)cccc1Nc1ccccc1C(=O)O [Tolfenamic]
Bliss interaction score [6]: 0.16

CCC[C@@H]1C[C@@H](C(=O)N[C@@H]([C@H]2O[C@H](SC)[C@H](O)[C@@H](O)[C@H]2O)[C@@H](C)O)N(C)C1 [Lincomycin] + CC(C)(O)c1ccccc1CC[C@@H](SCC1(CC(=O)O)CC1)c1cccc(/C=C/c2ccc3ccc(Cl)cc3n2)c1 [Montelukast]
Bliss interaction score [6]: -0.268

CCC[C@@H]1C[C@@H](C(=O)N[C@@H]([C@H]2O[C@H](SC)[C@H](O)[C@@H](O)[C@H]2O)[C@@H](C)O)N(C)C1 [Lincomycin] + CCCSc1nc(N[C@@H]2C[C@H]2c2ccc(F)c(F)c2)c2nnn([C@@H]3C[C@H](OCCO)[C@@H](O)[C@H]3O)c2n1 [Ticagrelor]
Bliss interaction score [6]: -0.385

CCC[C@@H]1C[C@@H](C(=O)N[C@@H]([C@H]2O[C@H](SC)[C@H](O)[C@@H](O)[C@H]2O)[C@@H](C)O)N(C)C1 [Lincomycin] + C[C@H]1C[C@@H]2[C@H]([C@@H](O)C[C@@]3(C)[C@H]2CC[C@]3(O)C(=O)CO)[C@@]2(C)C=CC(=O)C=C12 [Methylprednisolone]
Bliss interaction score [6]: -0.248

CCC[C@@H]1C[C@@H](C(=O)N[C@@H]([C@H]2O[C@H](SC)[C@H](O)[C@@H](O)[C@H]2O)[C@@H](C)O)N(C)C1 [Lincomycin] + Cc1c(C)c2c(c(C)c1O)CCC(C)(COc1ccc(CC3SC(=O)NC3=O)cc1)O2 [Troglitazone]
Bliss interaction score [6]: 0.222

CCC[C@@H]1C[C@@H](C(=O)N[C@@H]([C@H]2O[C@H](SC)[C@H](O)[C@@H](O)[C@H]2O)[C@@H](C)O)N(C)C1 [Lincomycin] + Cc1c(Cl)cccc1Nc1ccccc1C(=O)O [Tolfenamic]
Bliss interaction score [6]: -0.244

CCC[C@@H]1C[C@@H](C(=O)N[C@@H]([C@H]2O[C@H](SC)[C@H](O)[C@@H](O)[C@H]2O)[C@@H](C)O)N(C)C1 [Lincomycin] + Cc1cccc(CN2CCN(C(c3ccccc3)c3ccc(Cl)cc3)CC2)c1 [Meclizine]
Bliss interaction score [6]: 0.278

CCC[C@@H]1C[C@@H](C(=O)N[C@@H]([C@H]2O[C@H](SC)[C@H](O)[C@@H](O)[C@H]2O)[C@@H](C)O)N(C)C1 [Lincomycin] + O=C(O)Cc1cc(I)c(Oc2ccc(O)c(I)c2)c(I)c1 [Tiratricol]
Bliss interaction score [6]: 0.233

COc1c(N2C[C@@H]3CCCN[C@@H]3C2)c(F)cc2c(=O)c(C(=O)O)cn(C3CC3)c12 [Moxifloxacin] + Cc1c(Cl)cccc1Nc1ccccc1C(=O)O [Tolfenamic]
Bliss interaction score [6]: -0.12

O=C1CN(/N=C/c2ccc([N+](=O)[O-])o2)C(=O)N1 [Nitrofurantoin] + CCCSc1nc(N[C@@H]2C[C@H]2c2ccc(F)c(F)c2)c2nnn([C@@H]3C[C@H](OCCO)[C@@H](O)[C@H]3O)c2n1 [Ticagrelor]
Bliss interaction score [6]: -0.277

O=C1CN(/N=C/c2ccc([N+](=O)[O-])o2)C(=O)N1 [Nitrofurantoin] + CCCc1nc2c(C)cc(-c3nc4ccccc4n3C)cc2n1Cc1ccc(-c2ccccc2C(=O)O)cc1 [Telmisartan]
Bliss interaction score [6]: -0.216

C/C(=C\C(=O)OCCCCCCCCC(=O)O)C[C@@H]1OC[C@H](C[C@@H]2O[C@H]2[C@@H](C)[C@H](C)O)[C@@H](O)[C@H]1O [Pseudomonic acid] + CCCSc1nc(N[C@@H]2C[C@H]2c2ccc(F)c(F)c2)c2nnn([C@@H]3C[C@H](OCCO)[C@@H](O)[C@H]3O)c2n1 [Ticagrelor]
Bliss interaction score [6]: 0.241
